{"source": "patent US12281363B2", "about": "“Methods for detecting antiviral-drug resistant virus” (Secretary of State for Health and Social Care, priority 2018, dated 2025)", "test_system": "HSV-1", "assay": "Plaque reduction assay, HSV-1 clinical isolates on Vero cells", "assay_type": "cell-based", "settings": "Human alphaherpesvirus 1, Vero", "summary_of_the_method": "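Susceptibility of HSV-1 isolates was read as percent plaque reduction versus no-drug control, counted on fixed, crystal-violet-stained sub-confluent Vero cells infected at 75 PFU/well beneath CMC. Intermediate resistance lies between cut-offs ACV <3/>40 μM, PCV <10/>40 μM, CDV <24/>30 μM, FOS <250/>400 μM.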", "note": "Read-outs that look alike come from different tables or passages of the source."}
{"smiles": "Nc1nc2c(ncn2CCC(CO)CO)c(=O)[nH]1", "note": "[Penciclovir, penciclovir]", "values": [{"measurement": "IC50", "setting": "72 h, isolate HPG053, HSV-1 pol L802R + A834S (2405T>G, 2500G>T), also TK R176W, read-out: Drug susceptibility (IC50 value)", "result": "> 160", "unit": "µM"}, {"measurement": "IC50", "setting": "isolate HPG002, HSV-1 pol E992K (2974G>A), also TK insert (G) nt 430-436, pol A1169T, read-out: Drug susceptibility (IC50 value)", "result": "> 160", "unit": "µM"}, {"measurement": "IC50", "setting": "isolate HPG002, HSV-1 pol E992K (2974G>A), also TK insert (G) nt 430-436, pol A1169T, read-out: Drug susceptibility Penciclovir (PCV)", "result": "> 40", "unit": "µM"}, {"measurement": "IC50", "setting": "isolate HPG003, HSV-1 TK Y172S (515A>C), read-out: Drug susceptibility (IC50 value)", "result": 106, "unit": "µM"}, {"measurement": "IC50", "setting": "isolate HPG003, HSV-1 TK Y172S (515A>C), read-out: Drug susceptibility Penciclovir (PCV)", "result": "> 40", "unit": "µM"}, {"measurement": "IC50", "setting": "isolate HPG005, HSV-1 TK A37V (110C>T), read-out: Drug susceptibility (IC50 value)", "result": 5.19, "unit": "µM"}, {"measurement": "IC50", "setting": "isolate HPG005, HSV-1 TK A37V (110C>T), read-out: Drug susceptibility Penciclovir (PCV)", "result": "< 10", "unit": "µM"}, {"measurement": "IC50", "setting": "isolate HPG008, HSV-1 TK V204G (611T>G), read-out: Drug susceptibility (IC50 value)", "result": "> 160", "unit": "µM"}, {"measurement": "IC50", "setting": "isolate HPG008, HSV-1 TK V204G (611T>G), read-out: Drug susceptibility Penciclovir (PCV)", "result": "> 40", "unit": "µM"}, {"measurement": "IC50", "setting": "isolate HPG009, HSV-1 pol E992K (2974G>A), also pol A1169T, read-out: Drug susceptibility (IC50 value)", "result": 4.05, "unit": "µM"}, {"measurement": "IC50", "setting": "isolate HPG009, HSV-1 pol E992K (2974G>A), also pol A1169T, read-out: Drug susceptibility Penciclovir (PCV)", "result": "< 10", "unit": "µM"}, {"measurement": "IC50", "setting": "isolate HPG010, HSV-1 TK Q125* (373C>T), read-out: Drug susceptibility (IC50 value)", "result": 87.1, "unit": "µM"}, {"measurement": "IC50", "setting": "isolate HPG010, HSV-1 TK Q125* (373C>T), read-out: Drug susceptibility Penciclovir (PCV)", "result": "> 40", "unit": "µM"}, {"measurement": "IC50", "setting": "isolate HPG011, HSV-1 TK Q125* (373C>T), read-out: Drug susceptibility (IC50 value)", "result": 108, "unit": "µM"}, {"measurement": "IC50", "setting": "isolate HPG011, HSV-1 TK Q125* (373C>T), read-out: Drug susceptibility Penciclovir (PCV)", "result": "> 40", "unit": "µM"}, {"measurement": "IC50", "setting": "isolate HPG013, HSV-1 TK M121I (363G>A), read-out: Drug susceptibility (IC50 value)", "result": 105, "unit": "µM"}, {"measurement": "IC50", "setting": "isolate HPG013, HSV-1 TK M121I (363G>A), read-out: Drug susceptibility Penciclovir (PCV)", "result": "> 40", "unit": "µM"}, {"measurement": "IC50", "setting": "isolate HPG013, HSV-1 pol D83A (248A>C), also TK M121I, pol A1169T, read-out: Drug susceptibility (IC50 value)", "result": 105, "unit": "µM"}, {"measurement": "IC50", "setting": "isolate HPG013, HSV-1 pol D83A (248A>C), also TK M121I, pol A1169T, read-out: Drug susceptibility Penciclovir (PCV)", "result": "> 40", "unit": "µM"}, {"measurement": "IC50", "setting": "isolate HPG014, HSV-1 pol A1115T (3343G>A), read-out: Drug susceptibility (IC50 value)", "result": 5.66, "unit": "µM"}, {"measurement": "IC50", "setting": "isolate HPG014, HSV-1 pol A1115T (3343G>A), read-out: Drug susceptibility Penciclovir (PCV)", "result": "< 10", "unit": "µM"}, {"measurement": "IC50", "setting": "isolate HPG014, HSV-1 pol R993C (2977C>T), read-out: Drug susceptibility (IC50 value)", "result": 5.66, "unit": "µM"}, {"measurement": "IC50", "setting": "isolate HPG014, HSV-1 pol R993C (2977C>T), read-out: Drug susceptibility Penciclovir (PCV)", "result": "< 10", "unit": "µM"}, {"measurement": "IC50", "setting": "isolate HPG014, HSV-1 pol T54A (160A>G), read-out: Drug susceptibility (IC50 value)", "result": 5.66, "unit": "µM"}, {"measurement": "IC50", "setting": "isolate HPG014, HSV-1 pol T54A (160A>G), read-out: Drug susceptibility Penciclovir (PCV)", "result": "< 10", "unit": "µM"}, {"measurement": "IC50", "setting": "isolate HPG015, HSV-1 pol 966stop or F965_I966insF (2892_2893insT to 2895_2896insT), read-out: Drug susceptibility (IC50 value)", "result": 8.48, "unit": "µM"}, {"measurement": "IC50", "setting": "isolate HPG015, HSV-1 pol 966stop or F965_I966insF (2892_2893insT to 2895_2896insT), read-out: Drug susceptibility Penciclovir (PCV)", "result": "< 10", "unit": "µM"}, {"measurement": "IC50", "setting": "isolate HPG018, HSV-1 TK frameshift (881delC to 885delC), read-out: Drug susceptibility (IC50 value)", "result": 117, "unit": "µM"}, {"measurement": "IC50", "setting": "isolate HPG018, HSV-1 TK frameshift (881delC to 885delC), read-out: Drug susceptibility Penciclovir (PCV)", "result": "> 40", "unit": "µM"}, {"measurement": "IC50", "setting": "isolate HPG018, HSV-1 pol P1199T (3595C>A), also TK deletion (C) nt 881-885, pol A1169T, read-out: Drug susceptibility (IC50 value)", "result": 117, "unit": "µM"}, {"measurement": "IC50", "setting": "isolate HPG018, HSV-1 pol P1199T (3595C>A), also TK deletion (C) nt 881-885, pol A1169T, read-out: Drug susceptibility Penciclovir (PCV)", "result": "> 40", "unit": "µM"}, {"measurement": "IC50", "setting": "isolate HPG019, HSV-1 pol K750T (2249A>C), also TK deletion (G) nt 430-436, pol A1169T, read-out: Drug susceptibility (IC50 value)", "result": "> 160", "unit": "µM"}, {"measurement": "IC50", "setting": "isolate HPG019, HSV-1 pol K750T (2249A>C), also TK deletion (G) nt 430-436, pol A1169T, read-out: Drug susceptibility Penciclovir (PCV)", "result": "> 40", "unit": "µM"}, {"measurement": "IC50", "setting": "isolate HPG020, HSV-1 pol S911N (2732G>A), also pol A1169T, read-out: Drug susceptibility (IC50 value)", "result": 2.48, "unit": "µM"}, {"measurement": "IC50", "setting": "isolate HPG020, HSV-1 pol S911N (2732G>A), also pol A1169T, read-out: Drug susceptibility Penciclovir (PCV)", "result": "< 10", "unit": "µM"}, {"measurement": "IC50", "setting": "isolate HPG021, HSV-1 pol R681Q (2042G>A), also TK deletion (G) nt 430-436, read-out: Drug susceptibility (IC50 value)", "result": "> 160", "unit": "µM"}, {"measurement": "IC50", "setting": "isolate HPG021, HSV-1 pol R681Q (2042G>A), also TK deletion (G) nt 430-436, read-out: Drug susceptibility Penciclovir (PCV)", "result": "> 40", "unit": "µM"}, {"measurement": "IC50", "setting": "isolate HPG021, HSV-1 pol T839A (2515A>G), also TK deletion (G) nt 430-436, read-out: Drug susceptibility (IC50 value)", "result": "> 160", "unit": "µM"}, {"measurement": "IC50", "setting": "isolate HPG021, HSV-1 pol T839A (2515A>G), also TK deletion (G) nt 430-436, read-out: Drug susceptibility Penciclovir (PCV)", "result": "> 40", "unit": "µM"}, {"measurement": "IC50", "setting": "isolate HPG025, HSV-1 pol E850Q (2548G>C), also TK R216C, read-out: Drug susceptibility (IC50 value)", "result": 118, "unit": "µM"}, {"measurement": "IC50", "setting": "isolate HPG025, HSV-1 pol E850Q (2548G>C), also TK R216C, read-out: Drug susceptibility Penciclovir (PCV)", "result": "> 40", "unit": "µM"}, {"measurement": "IC50", "setting": "isolate HPG026, HSV-1 pol E850Q (2548G>C), also TK R216C, pol A1169T, read-out: Drug susceptibility (IC50 value)", "result": 35, "unit": "µM"}, {"measurement": "IC50", "setting": "isolate HPG026, HSV-1 pol E850Q (2548G>C), also TK R216C, pol A1169T, read-out: Drug susceptibility Penciclovir (PCV)", "result": "10 to 40", "unit": "µM"}, {"measurement": "IC50", "setting": "isolate HPG027, HSV-1 TK V204G (611T>G), also pol S914L, A1169AT, read-out: Drug susceptibility (IC50 value)", "result": "> 160", "unit": "µM"}, {"measurement": "IC50", "setting": "isolate HPG027, HSV-1 TK V204G (611T>G), also pol S914L, A1169AT, read-out: Drug susceptibility Penciclovir (PCV)", "result": "> 40", "unit": "µM"}, {"measurement": "IC50", "setting": "isolate HPG027, HSV-1 pol S914L (2741C>T), also TK V204G, pol A1169T, read-out: Drug susceptibility (IC50 value)", "result": "> 160", "unit": "µM"}, {"measurement": "IC50", "setting": "isolate HPG027, HSV-1 pol S914L (2741C>T), also TK V204G, pol A1169T, read-out: Drug susceptibility Penciclovir (PCV)", "result": "> 40", "unit": "µM"}, {"measurement": "IC50", "setting": "isolate HPG029, HSV-1 TK Y172S (515A>C), read-out: Drug susceptibility (IC50 value)", "result": "> 160", "unit": "µM"}, {"measurement": "IC50", "setting": "isolate HPG029, HSV-1 TK Y172S (515A>C), read-out: Drug susceptibility Penciclovir (PCV)", "result": "> 40", "unit": "µM"}, {"measurement": "IC50", "setting": "isolate HPG031, HSV-1 pol E1120A (3359A>C), also a TK resistance mutation (footnote e), read-out: Drug susceptibility (IC50 value)", "result": 156, "unit": "µM"}, {"measurement": "IC50", "setting": "isolate HPG031, HSV-1 pol E1120A (3359A>C), also a TK resistance mutation (footnote e), read-out: Drug susceptibility Penciclovir (PCV)", "result": "> 40", "unit": "µM"}, {"measurement": "IC50", "setting": "isolate HPG031, HSV-1 pol G139R (415G>C or 415G>A), also a TK resistance mutation (footnote e), read-out: Drug susceptibility (IC50 value)", "result": 156, "unit": "µM"}, {"measurement": "IC50", "setting": "isolate HPG031, HSV-1 pol G139R (415G>C or 415G>A), also a TK resistance mutation (footnote e), read-out: Drug susceptibility Penciclovir (PCV)", "result": "> 40", "unit": "µM"}, {"measurement": "IC50", "setting": "isolate HPG032, HSV-1 TK 183* (437_438insA), read-out: Drug susceptibility (IC50 value)", "result": "> 160", "unit": "µM"}, {"measurement": "IC50", "setting": "isolate HPG032, HSV-1 TK 183* (437_438insA), read-out: Drug susceptibility Penciclovir (PCV)", "result": "> 40", "unit": "µM"}]}
